Counter-ions that a name gives are not always drawn.
Biological target: T1, Human IP6K1 (Homo sapiens, UniProt Q92551)
T1 construct: GST (N, cleaved yes); made in house; host or cells: C43 E. coli, pGEX-6P-2
Assay: IP6K1 high-throughput screen of the Sigma LOPAC (ADP-Glo Max, single point);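 note: final compound concentration 10µM in 5% DMSO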
Type: biochemical

[1] = LOPAC single-point screen, ADP-Glo Max luminescence raw signal per well
[2] = LOPAC single-point screen, Z-score relative to plate average and StDev
[3] = LOPAC single-point screen, ADP-Glo Max raw signal per well
[4] = LOPAC single-point screen, Z-score from raw signal with plate average and StDev
[5] = Sigma LOPAC single-point screen, ADP-Glo Max raw signal per well
[6] = Sigma LOPAC single-point screen, Z-score from plate average and StDev
[7] = LOPAC single-point screen, Z-score against plate average and StDev
[8] = LOPAC single-point screen, Z-score from plate average and StDev

T1 sequence (Q92551 whole entry): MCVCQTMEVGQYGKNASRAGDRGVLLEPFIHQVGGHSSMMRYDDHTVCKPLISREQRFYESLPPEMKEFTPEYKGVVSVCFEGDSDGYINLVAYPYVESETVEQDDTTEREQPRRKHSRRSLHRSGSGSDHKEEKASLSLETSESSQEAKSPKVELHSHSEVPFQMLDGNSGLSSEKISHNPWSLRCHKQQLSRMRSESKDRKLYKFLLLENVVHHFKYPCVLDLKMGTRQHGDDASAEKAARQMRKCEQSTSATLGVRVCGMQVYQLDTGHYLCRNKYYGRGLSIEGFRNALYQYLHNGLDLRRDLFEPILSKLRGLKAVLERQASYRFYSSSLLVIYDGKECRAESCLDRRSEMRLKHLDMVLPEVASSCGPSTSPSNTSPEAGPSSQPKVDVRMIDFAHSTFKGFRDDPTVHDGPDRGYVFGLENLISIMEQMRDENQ

`CC(C)[C@@]1(NC(=O)[C@@H]2C=C3c4cccc5[nH]cc(c45)C[C@H]3N(C)C2)O[C@@]2(O)[C@@H]3CCCN3C(=O)[C@H](Cc3ccccc3)N2C1=O` [Ergocristine] was tested, and the “Raw Signal” value [1] was 51436 and the Z-score [2] was -0.7577.

For `C[C@]12CC[C@@H]3c4ccc(O)cc4CC[C@H]3[C@@H]1CCC2=O` [Estrone], the “Raw Signal” value [3] was 53604 and the Z-score [4] was -0.3174.

With `CCOC(=O)c1cnc2c(cnn2CC)c1NN=C(C)C` [Etazolate hydrochloride] the “Raw Signal” value [1] was 51155 and the Z-score [2] was -0.8148.

With `CCC1(C)CC(=O)NC1=O` (centres unmarked) [Ethosuximide] the “Raw Signal” value [5] was 57090 and the Z-score [6] was 0.3905.

With `CCc1cccc2c3c([nH]c12)C(CC)(CC(=O)O)OCC3` (centres unmarked) [Etodolac] the “Raw Signal” value [5] was 60333 and the Z-score [6] was 1.049.

`COc1cc([C@@H]2c3cc4c(cc3[C@@H](O[C@@H]3O[C@@H]5CO[C@@H](C)O[C@H]5[C@H](O)[C@H]3O)[C@H]3COC(=O)[C@H]23)OCO4)cc(OC)c1O` [Etoposide] was tested, and the “Raw Signal” value [3] was 53339 and the Z-score [4] was -0.3713.

With `COC(=O)c1c(C)[nH]c(C)c1C(=O)c1ccccc1Cc1ccccc1` [FPL 64176] the “Raw Signal” value [3] was 56544 and the Z-score [7] was 0.2796.

`CCCn1c(=O)c2[nH]c(C3CCCC3)nc2n(CCCOC(=O)c2ccc(S(=O)(=O)F)cc2)c1=O` [FSCPX] was tested, and the “Raw Signal” value [1] was 51325 and the Z-score [2] was -0.7803.

`NC(N)=Nc1nc(CSCCC(N)=NS(N)(=O)=O)cs1` [Famotidine] was tested, and the “Raw Signal” value [3] was 53127 and the Z-score [4] was -0.4143.

For `CC(C)=CCC/C(C)=C/CC/C(C)=C/CSc1ccccc1C(=O)O` [Farnesylthiosalicylic acid], the “Raw Signal” value [1] was 51239 and the Z-score [2] was -0.7977.

In the case of `NC(=O)OCC(COC(N)=O)c1ccccc1` [Felbamate], the “Raw Signal” value [5] is reported as 58283 and the Z-score [6] is reported as 0.6328.

`CCOC(=O)C1=C(C)NC(C)=C(C(=O)OC)C1c1cccc(Cl)c1Cl` (centres unmarked) [Felodipine] was tested, and the “Raw Signal” value [1] was 52611 and the Z-score [2] was -0.5191.

With `CC(C)OC(=O)C(C)(C)Oc1ccc(C(=O)c2ccc(Cl)cc2)cc1` [Fenofibrate] the “Raw Signal” value [1] was 61843 and the Z-score [8] was 1.356.

In the case of `Oc1ccc(C2CNCCc3c2cc(O)c(O)c3Cl)cc1` (centres unmarked) [Fenoldopam bromide], the “Raw Signal” value [5] is reported as 59808 and the Z-score [6] is reported as 0.9425.

In the case of `CC(Cc1ccc(O)cc1)NCC(O)c1cc(O)cc(O)c1` (centres unmarked) [Fenoterol hydrobromide], the “Raw Signal” value [3] is reported as 56195 and the Z-score [7] is reported as 0.2088.

In the case of `O=C1NCC2(CCN(CCc3ccccc3)CC2)O1` [Fenspiride hydrochloride], the “Raw Signal” value [3] is reported as 54758 and the Z-score [7] is reported as -0.08307.

With `CC(C)(C(=O)O)c1ccc(C(O)CCCN2CCC(C(O)(c3ccccc3)c3ccccc3)CC2)cc1` (centres unmarked) [Fexofenadine hydrochloride] the “Raw Signal” value [5] was 58731 and the Z-score [6] was 0.7238.

In the case of `COc1cccc2c1[C@@H]1CN(CCCCn3c(=O)[nH]c4c(sc5ncc(-c6ccccc6)nc54)c3=O)C[C@@H]1CO2` [Fiduxosin hydrochloride], the “Raw Signal” value [3] is reported as 56814 and the Z-score [7] is reported as 0.3345.

For `O=C(NCC1CCCCN1)c1cc(OCC(F)(F)F)ccc1OCC(F)(F)F` (centres unmarked) [Flecainide acetate], the “Raw Signal” value [1] was 50763 and the Z-score [2] was -0.8944.

For `CCOC(=O)c1ncn2c1CN(C)C(=O)c1cc(F)ccc1-2` [Flumazenil], the “Raw Signal” value [1] was 52634 and the Z-score [2] was -0.5144.

With `Fc1ccc(C(c2ccc(F)cc2)N2CCN(C/C=C/c3ccccc3)CC2)cc1` [Flunarizine dihydrochloride] the “Raw Signal” value [5] was 58645 and the Z-score [6] was 0.7063.

`CNCCC(Oc1ccc(C(F)(F)F)cc1)c1ccccc1` (centres unmarked) [Fluoxetine hydrochloride] was tested, and the “Raw Signal” value [5] was 60043 and the Z-score [6] was 0.9903.

With `OCCN1CCN(CCCN2c3ccccc3Sc3ccc(C(F)(F)F)cc32)CC1` [Fluphenazine dihydrochloride] the “Raw Signal” value [5] was 57313 and the Z-score [6] was 0.4358.

For `CCOC(=O)Nc1ccc(NCc2ccc(F)cc2)nc1N` [Flupirtine maleate], the “Raw Signal” value [3] was 54811 and the Z-score [7] was -0.07231.

With `O=C1NCN(c2ccccc2)C12CCN(CCCC(c1ccc(F)cc1)c1ccc(F)cc1)CC2` [Fluspirilene] the “Raw Signal” value [1] was 52037 and the Z-score [2] was -0.6357.

In the case of `CC(C)C(=O)Nc1ccc([N+](=O)[O-])c(C(F)(F)F)c1` [Flutamide], the “Raw Signal” value [1] is reported as 64684 and the Z-score [8] is reported as 1.9328.

With `COCCCC/C(=N\OCCN)c1ccc(C(F)(F)F)cc1` [Fluvoxamine maleate] the “Raw Signal” value [5] was 56948 and the Z-score [6] was 0.3617.

With `C=C[C@@]1(C)CC(=O)[C@]2(O)[C@@]3(C)[C@@H](O)CCC(C)(C)[C@@H]3[C@H](O)[C@H](OC(C)=O)[C@@]2(C)O1` [Forskolin] the “Raw Signal” value [5] was 61603 and the Z-score [6] was 1.307.

With `Cc1nc2c([nH]1)c(=O)n(C)c(=O)n2Cc1ccco1` [Furafylline] the “Raw Signal” value [3] was 55994 and the Z-score [7] was 0.1679.

With `O=C([O-])c1cc2cc(Cc3cccnc3)ccc2o1.[Na+]` [Furegrelate sodium] the “Raw Signal” value [3] was 53193 and the Z-score [4] was -0.4009.

With `NS(=O)(=O)c1cc(C(=O)O)c(NCc2ccco2)cc1Cl` [Furosemide] the “Raw Signal” value [3] was 53546 and the Z-score [4] was -0.3292.

For `CCCCc1ccc(C(=O)O)nc1` [Fusaric acid], the “Raw Signal” value [1] was 50850 and the Z-score [2] was -0.8767.

`CC(=O)O[C@H]1C[C@@]2(C)[C@@H](C[C@@H](O)[C@H]3[C@@]4(C)CC[C@@H](O)[C@@H](C)[C@@H]4CC[C@@]32C)/C1=C(\CCC=C(C)C)C(=O)[O-].[Na+]` [Fusidic acid sodium] was tested, and the “Raw Signal” value [3] was 56091 and the Z-score [7] was 0.1876.

For `NCCCC(=O)O` [GABA], the “Raw Signal” value [5] was 63549 and the Z-score [6] was 0.9926.

For `Cl.Cl.Fc1ccc(C(OCCN2CCN(CCCc3ccccc3)CC2)c2ccc(F)cc2)cc1` [GBR-12909 dihydrochloride], the “Raw Signal” value [5] was 60047 and the Z-score [6] was 0.9911.

In the case of `Cl.Cl.c1ccc(CCCN2CCN(CCOC(c3ccccc3)c3ccccc3)CC2)cc1` [GBR-12935 dihydrochloride], the “Raw Signal” value [1] is reported as 62907 and the Z-score [8] is reported as 1.572.

With `COc1ccc(CNC(=O)/C=C/c2ccc3[nH]cc(CCN(C)C)c3c2)cc1` [GR 4661] the “Raw Signal” value [1] was 54448 and the Z-score [2] was -0.6103.

`Cn1cc(C(=O)OCC2CCN(CCNS(C)(=O)=O)CC2)c2ccccc21` [GR 113808] was tested, and the “Raw Signal” value [3] was 56278 and the Z-score [4] was -0.288.

With `COc1[nH]c2ccc(F)cc2c1C(=O)OCC1CCN(CCNS(C)(=O)=O)CC1.NS(=O)(=O)O` [GR 125487 sulfamate salt] the “Raw Signal” value [1] was 51618 and the Z-score [2] was -0.7208.

For `COc1ccc(NC(=O)c2ccc(-c3ccc(-c4noc(C)n4)cc3C)cc2)cc1N1CCN(C)CC1.Cl` [GR 127935 hydrochloride], the “Raw Signal” value [1] was 51529 and the Z-score [2] was -0.4813.

In the case of `COC(=O)N1CCN(C(=O)Cc2ccc(Cl)c(Cl)c2)C(CN2CCCC2)C1.O=C(O)/C=C/C(=O)O` (centres unmarked) [GR-89696 fumarate], the “Raw Signal” value [3] is reported as 54440 and the Z-score [4] is reported as -0.1477.

With `CN(CCOc1ccc(C[C@H](Nc2ccccc2C(=O)c2ccccc2)C(=O)O)cc1)c1ccccn1` [GW1929] the “Raw Signal” value [3] was 55887 and the Z-score [7] was 0.1462.

For `CN(C)c1cc2c(Nc3ccc4c(cnn4Cc4ccccc4)c3)ncnc2cn1` [GW2974], the “Raw Signal” value [3] was 53289 and the Z-score [4] was -0.3814.

For `O=C1Nc2ccc(I)cc2/C1=C/c1cc(Br)c(O)c(Br)c1` [GW5074], the “Raw Signal” value [1] was 51521 and the Z-score [2] was -0.7405.

`CC(C)(Sc1ccc(CCN(CCCCC2CCCCC2)C(=O)NC2CCCCC2)cc1)C(=O)O` [GW7647] was tested, and the “Raw Signal” value [1] was 52814 and the Z-score [2] was -0.4779.

In the case of `O=C(Nc1ccccc1)c1cc([N+](=O)[O-])ccc1Cl` [GW9662], the “Raw Signal” value [3] is reported as 52726 and the Z-score [4] is reported as -0.2802.

For `CC1=NN=C(c2ccc(N)cc2)c2cc3c(cc2C1)OCO3.Cl` [GYKI 52466 hydrochloride], the “Raw Signal” value [1] was 61943 and the Z-score [8] was 1.376.

For `CC1Cc2cc3c(cc2C(c2ccc(N)cc2)=NN1)OCO3` (centres unmarked) [GYKI 52895], the “Raw Signal” value [1] was 63898 and the Z-score [8] was 1.773.

`Cl.NC1C=CC=C(C(=O)O)C1` (centres unmarked) [Gabaculine hydrochloride] was tested, and the “Raw Signal” value [5] was 64092 and the Z-score [6] was 1.088.

For `NCC1(CC(=O)O)CCCCC1` [Gabapentin], the “Raw Signal” value [1] was 51688 and the Z-score [2] was -0.7066.

In the case of `CC[N+](CC)(CC)CCOc1cccc(OCC[N+](CC)(CC)CC)c1OCC[N+](CC)(CC)CC` [Gallamine triethiodide], the “Raw Signal” value [3] is reported as 56632 and the Z-score [7] is reported as 0.2975.

`Nc1nc(O)c2ncn(COC(CO)CO)c2n1` [Ganciclovir] was tested, and the “Raw Signal” value [5] was 57228 and the Z-score [6] was 0.4186.

`O=c1c(-c2ccc(O)cc2)coc2cc(O)cc(O)c12` [Genistein] was tested, and the “Raw Signal” value [3] was 53223 and the Z-score [4] was -0.3948.

In the case of `COc1ccc(Cl)cc1C(=O)NCCc1ccc(S(=O)(=O)NC(=O)NC2CCCCC2)cc1` [Glibenclamide], the “Raw Signal” value [5] is reported as 57524 and the Z-score [6] is reported as 0.4787.

In the case of `Cc1cnc(C(=O)NCCc2ccc(S(=O)(=O)NC(=O)NC3CCCCC3)cc2)cn1` [Glipizide], the “Raw Signal” value [5] is reported as 60018 and the Z-score [6] is reported as 0.9852.

In the case of `N=C(N)N/N=C/c1c(Cl)cccc1Cl` [Guanabenz acetate], the “Raw Signal” value [3] is reported as 54722 and the Z-score [7] is reported as -0.09038.

`N=C(N)NC(=O)Cc1c(Cl)cccc1Cl` [Guanfacine hydrochloride] was tested, and the “Raw Signal” value [3] was 54831 and the Z-score [7] was -0.06825.

In the case of `Br.Br.NC(N)=NCCSSCCN=C(N)N` [Guanidinoethyl disulfide dihydrobromide], the “Raw Signal” value [5] is reported as 61778 and the Z-score [6] is reported as 1.343.

With `O=C(O)C1=CCCNC1` [Guvacine hydrochloride] the “Raw Signal” value [3] was 56288 and the Z-score [7] was 0.2277.

In the case of `CC1CNCCN1S(=O)(=O)c1cccc2cnccc12.Cl.Cl` (centres unmarked) [H-7 dihydrochloride], the “Raw Signal” value [1] is reported as 51716 and the Z-score [2] is reported as -0.7009.

In the case of `CNCCNS(=O)(=O)c1cccc2cnccc12.Cl.Cl` [H-8 dihydrochloride], the “Raw Signal” value [3] is reported as 53425 and the Z-score [4] is reported as -0.1627.

— article PMC5706701, “Development of a homogenous high-throughput assay for inositol hexakisphosphate kinase 1 activity” (PLoS ONE, 2017)
